ChEMBL document CHEMBL5505994, “Nur77 increases mitophagy and decreases aggregation of α-synuclein by modulating the p-c-Abl/p-PHB2 Y121 in α-synuclein PFF SH-SY5Y cells and mice” (Eur J Med Chem, 2024)
Active and inactive are the calls of the source.

Legend:
SH-SY5Y [1] = assay: Agonist activity at Nur77-c-Abl-PHB2 pathway in alpha-synuclein preformed fibril-induced human SH-SY5Y cells assessed as increase in ratio of LC3-II/LC3I at 1 uM treated for 24 hrs by Western blot analysis; type: cell-based; conditions: filed as agonist
Mus musculus [2] = organism: Mus musculus; assay: Neuroprotection activity in alpha-synuclein preformed fibril-induced C57BL/6J mouse PD model assessed as decrease in phosphorylated […] level in brain at 1 uM treated after 3 month PPF challenge measured after 14 days by Western blot analysis; type: functional, organism-based; conditions: time 14.0 day
SH-SY5Y [3] = assay: Agonist activity at Nur77-c-Abl-PHB2 pathway in alpha-synuclein preformed fibril-induced human SH-SY5Y cells assessed as decrease in c-Abl phosphorylation at 1 uM treated for 24 hrs by Western blot analysis; type: cell-based; conditions: filed as agonist
SH-SY5Y [4] = assay: Agonist activity at Nur77-c-Abl-PHB2 pathway in alpha-synuclein preformed fibril-induced human SH-SY5Y cells assessed as decrease in p62 expression at 1 uM treated for 24 hrs by Western blot analysis; type: cell-based; conditions: filed as agonist
SH-SY5Y [5] = assay: Agonist activity at Nur77-c-Abl-PHB2 pathway in alpha-synuclein preformed fibril-induced human SH-SY5Y cells assessed as interaction with c-Abl at 1 uM treated for 24 hrs by Co-immunoprecipitation (Co-IP) assay; type: cell-based; conditions: filed as agonist
SH-SY5Y [6] = assay: Agonist activity at Nur77-c-Abl-PHB2 pathway in alpha-synuclein preformed fibril-induced human SH-SY5Y cells assessed as reduction in PHB2 phosphorylation at 1 uM treated for 24 hrs by Western blot analysis; type: cell-based; conditions: filed as agonist
SH-SY5Y [7] = assay: Agonist activity at Nur77-c-Abl-PHB2 pathway in alpha-synuclein preformed fibril-induced human SH-SY5Y cells assessed as translocation of Nur77 into mitochondria at 1 uM treated for 24 hrs by Western blot analysis; conditions: filed as agonist
Mus musculus [8] = organism: Mus musculus; assay: Neuroprotection activity in alpha-synuclein preformed fibril-induced C57BL/6J mouse PD model assessed as rescue of DA neurons in brain by measuring TH positive neurons at 1 uM treated after 3 month PPF challenge measured after 14 days by immunohistochemistry; type: functional, organism-based; conditions: time 14.0 day
Mus musculus [9] = organism: Mus musculus; assay: Neuroprotection activity in alpha-synuclein preformed fibril-induced C57BL/6J mouse PD model assessed as decrease in phosphorylated c-Abl level in brain at 1 uM treated after 3 month PPF challenge measured after 14 days by Western blot analysis; type: functional, organism-based; conditions: time 14.0 day
Mus musculus [10] = organism: Mus musculus; assay: Neuroprotection activity in alpha-synuclein preformed fibril-induced C57BL/6J mouse PD model assessed as decrease in p62 expression in brain at 1 uM treated after 3 month PPF challenge measured after 14 days by Western blot analysis; type: functional, organism-based; conditions: time 14.0 day
Mus musculus [11] = organism: Mus musculus; assay: Neuroprotection activity in alpha-synuclein preformed fibril-induced C57BL/6J mouse PD model assessed as decrease in pS129-alpha-synuclein in SNpc TH positive neurons in brain at 1 uM treated after 3 month PPF challenge measured after 14 days by Western blot analysis; type: functional, organism-based; conditions: time 14.0 day
SH-SY5Y [12] = assay: Agonist activity at Nur77 in alpha-synuclein preformed fibril-induced human SH-SY5Y cells assessed as reduction in alpha-synuclein aggregation at 1 uM treated for 24 hrs by Western blot analysis; type: cell-based; conditions: filed as agonist
Mus musculus [13] = organism: Mus musculus; assay: Neuroprotection activity in alpha-synuclein preformed fibril-induced C57BL/6J mouse PD model assessed as increase in LC3 level in brain at 1 uM treated after 3 month PPF challenge measured after 14 days by Western blot analysis; type: functional, organism-based; conditions: time 14.0 day
SH-SY5Y [14] = assay: Agonist activity at Nur77-c-Abl-PHB2 pathway in alpha-synuclein preformed fibril-induced human SH-SY5Y cells assessed as increase in PHB2/LC3 interaction at 1 uM treated for 24 hrs by Co-immunoprecipitation (Co-IP) assay; type: cell-based; conditions: filed as agonist

Measured: Activity

CCCCCCCC(=O)c1c(O)cc(O)cc1CC(=O)OCC
active: all assays above
